21 compounds from patent publication US12173188B2, “Ultraviolet absorbing agent, ultraviolet absorbing composition, ultraviolet absorbing film, laminate, and novel compound” (FUJIFILM CORPORATION, priority 2019, dated 2024) can be followed below.

A short description of series [1]: Solubility in distilled water at 25° C. The settings on record: 24 hours standing.
Protocol: The solubility of the specific ultraviolet absorbing agent in water in the present disclosure can be measured by the following method from the amount of the specific ultraviolet absorbing agent dissolved in 10 g of distilled water at 25° C.
After mixing 10 g of distilled water with 1 g of the specific ultraviolet absorbing agent, the resultant mixture is irradiated with ultrasonic waves at a liquid temperature of 25° C. for 15 minutes and then allowed to stand for 24 hours while the liquid temperature is maintained at 25° C. For ultrasonic irradiation, a desktop ultrasonic cleaner 1510, manufactured by Branson Ultrasonics, Emerson Japan, Ltd. is used.
After being allowed to stand for 24 hours, filtration is carried out through a membrane filter (0.1 μm mesh, manufactured by [sequence] Co., Ltd.). The unfiltered specific ultraviolet absorbing agent is collected, dried, and then weighed. The amount of the unfiltered specific ultraviolet absorbing agent is subtracted from 1 g of the specific ultraviolet absorbing agent to obtain an amount of the specific ultraviolet absorbing agent dissolved in water, and the solubility of the specific ultraviolet absorbing agent in water is calculated from that the obtained amount value.
Series [2] is described as follows: Light fastness of laminate, metal halide lamp irradiation. The series is classed as physicochemical. The settings on record: change in transmittance at 380 nm after 60 hours metal halide lamp, 90 mW/cm^2, 63° C., 50% RH. On the procedure: First, the transmittance of the obtained laminate of the glass plate and the ultraviolet absorbing film at a wavelength of 380 nm was measured using a spectrophotometer (model number: UV 3150) manufactured by Shimadzu Corporation.
Next, using a super-accelerated weather fastness tester [product name: EYE SUPER UV Tester, IWASAKI ELECTRIC Co., Ltd.], the obtained laminate of the glass plate and the ultraviolet absorbing film was irradiated with light (about 290 nm […]) of a metal halide lamp for 60 hours under the conditions of an illuminance of 90 mW/cm^2 ([…]), a temperature of 63° C., and a relative humidity of 50%.
After light irradiation, the transmittance of the obtained laminate of the glass plate and the ultraviolet absorbing film at a wavelength of 380 nm was measured in the same manner as described above using a spectrophotometer (model number: UV 3150) manufactured by Shimadzu Corporation.
The width of change in transmittance at a wavelength of 380 nm before and after the light irradiation was calculated, and the light fastness was evaluated as “particularly good” in a case where the width of change was less than 5%, the light fastness was evaluated as “good” in a case where the width of change was 5% or more and less than 10%, and the light fastness was evaluated as “bad” in a case where the width of change was 10% or more.

A short description of series [3]: Moist heat resistance test of laminate (60° C., 90% RH, 160 hours). The series is classed as physicochemical. The settings on record: for Haze after moist heating: after 160 hours at 60° C.; for Haze after moist heating / Moist heat resistance: 90% RH; for Moist heat resistance: change in transmittance at 380 nm after 160 hours at 60° C. On the procedure:
The moist heat test was carried out with a constant temperature and humidity device (IG420, manufactured by Yamato Scientific Co., Ltd.) under the conditions of a temperature of 60° C. and a humidity of 90% RH. The transmittance at 380 nm after the lapse of 160 hours was measured by the above method. The width of change in transmittance at a wavelength of 380 nm before and after the moist heat resistance test was calculated, and the moist heat resistance was evaluated as “particularly good” in a case where the width of change was less than 5%, the moist heat resistance was evaluated as “good” in a case where the width of change was 5% or more and less than 10%, and the moist heat resistance was evaluated as “bad” in a case where the width of change was 10% or more.
The haze after the moist heat resistance test was measured by the same method as in (2. Initial haze) described above.

A short description of series [4]: Maximum absorption wavelength by spectrophotometer. Particulars: H2O. The series is classed as physicochemical. The method, then: The maximum absorption wavelength of the ultraviolet absorbing agent can be measured, for example, using a spectrophotometer. Examples of the device include a spectrophotometer UV3600 and an ultraviolet-visible-near infrared spectrophotometer UV 3150, manufactured by Shimadzu Corporation. In the present disclosure, the maximum absorption wavelength of the ultraviolet absorbing agent is measured using a spectrophotometer UV3600.
The measurement is carried out at room temperature (25° C.), and the absorbance is measured using a spectrophotometer to obtain an absorption spectrum while air is referenced as a control as the measurement condition.
In a case where an absorbance at a wavelength in a predetermined wavelength range is measured, the maximum absorption wavelength, the transmittance, and the like can be calculated.

The nature of series [5]: Molar absorption coefficient in pure water. Particulars: 1.0 mg in 100 mL pure water, 1 cm cell, at maximum absorption wavelength; in L/(mol·cm) (unit assumed). Type of series: physicochemical. On the procedure:
After dissolving 1.0 mg of a sample in 100 mL of pure water, the absorbance of the aqueous solution was measured in a 1 cm cell using a spectrophotometer (model number: UV 3150) manufactured by Shimadzu Corporation. From the measurement results, the molar absorption coefficient was calculated from the value of the absorbance at the maximum absorption wavelength using the Lambert-Beer law.

Where [6] appears, read: 5.0 parts agent/45.0 parts PVA film.
The mark [7] stands for this setting: 2.0 parts agent/98.0 parts PVA film.

Take `CCCCOc1ccc(OCCCC)c2c1SC(=C1C(=O)N(CCCCC(=O)[O-])N(CCCCC(=O)[O-])C1=O)S2.[Na+].[Na+]` [Compound M-20]: the “Solubility (25° C.)” value in series [1] amounted to 2.9 % by mass.
Take `CCCCOc1ccc(OCCCC)c2c1SC(=C(C#N)C(=O)OCCCCP(=O)(O)O)S2` [Compound M-10]: the “Solubility (25° C.)” value in series [1] is recorded as 1.9 % by mass.
With `O=C(c1ccc(O)cc1O)c1ccc(O)cc1O` [Compound H-1, reference compound], the Light fastness entry in series [2] (setting [6]) is on record as “Bad (the width of change was 10% or more)”. Besides, in series [3] (setting [6]), the Haze after moist heating is 6.1% and the Moist heat resistance result is recorded as “Bad (the width of change was 10% or more)”.
`CON=CC(C#N)=C1Sc2c(OCCCCS(=O)(=O)[O-])ccc(OCCCCS(=O)(=O)[O-])c2S1.[Na+].[Na+]` [Compound M-5] registered a Maximum absorption wavelength in series [4] of 390 nm. The Molar absorption coefficient in series [5] is on record as 27,400. In series [2] (setting [6]), the Light fastness result was “Particularly good (the width of change was less than 5%)”. In addition, in series [3] (setting [6]), the Haze after moist heating stood at 0.28% and the Moist heat resistance entry is “Particularly good (the width of change was less than 5%)”. Also, in series [1], the “Solubility (25° C.)” value is 3.1 % by mass.
As to `CCCCN1C(=O)C(=C2Sc3c(OCCCCS(=O)(=O)[O-])ccc(OCCCCS(=O)(=O)[O-])c3S2)C(=O)N1CCCC.[Na+].[Na+]` [Compound M-11], the Maximum absorption wavelength in series [4] stood at 387 nm. Further, the Molar absorption coefficient in series [5] is on record as 35,900. Further, the Light fastness result in series [2] (setting [7]) and in series [2] (setting [6]) was “Particularly good (the width of change was less than 5%)” each time. Moreover, the Haze after moist heating stood at 0.1% in series [3] (setting [7]) and 0.26% in series [3] (setting [6]). Moreover, the Moist heat resistance result in series [3] (setting [7]) and in series [3] (setting [6]) was “Particularly good (the width of change was less than 5%)” throughout.
Take `CCCCC(CC)COc1ccc(OCC(CC)CCCC)c2c1SC(=C1C(=O)N(CCCC)N(CCCC)C1=O)S2` (centres unmarked) [Compound H-5, reference compound]: in series [2] (setting [6]), the Light fastness result is listed as “Bad (the width of change was 10% or more)”. Besides, in series [3] (setting [6]), the Haze after moist heating came out at 68% and the Moist heat resistance result is reported as “Bad (the width of change was 10% or more)”.
Take `CC(C)(C)C(=O)C(C#N)=C1Sc2c(OCCCCS(=O)(=O)[O-])ccc(OCCCCS(=O)(=O)[O-])c2S1.[Na+].[Na+]` [Compound M-1]: the “Solubility (25° C.)” value in series [1] is given as 3.2 % by mass.
For `N#CC(C#N)=C1Sc2c(OCCCCS(=O)(=O)[O-])ccc(OCCCCS(=O)(=O)[O-])c2S1.[Na+].[Na+]` [Compound M-3], in series [4], the Maximum absorption wavelength is listed as 372 nm. Further, the Molar absorption coefficient in series [5] is listed as 28,100. Further, the Light fastness result in series [2] (setting [7]) and in series [2] (setting [6]) was “Particularly good (the width of change was less than 5%)” in each case. For the same compound, the Haze after moist heating in series [3] (setting [7]) was found to be 0.1%; in series [3] (setting [6]), 0.24%. The Moist heat resistance entry in series [3] (setting [7]) and in series [3] (setting [6]) was “Particularly good (the width of change was less than 5%)” in each case. Besides, the “Solubility (25° C.)” value in series [1] worked out at 3.1 % by mass.
With `CCCCN1C(=O)C(=C2Sc3c(OCCCCS(=O)(=O)[O-])c4c(c(OCCCCS(=O)(=O)[O-])c3S2)SC(=C2C(=O)N(CCCC)N(CCCC)C2=O)S4)C(=O)N1CCCC.[Na+].[Na+]` [Compound H-4, reference compound], in series [2] (setting [6]), the Light fastness result is “Good (the width of change was 5% or more and less than 10%)”. Further, in series [3] (setting [6]), the Haze after moist heating worked out at 18% and the Moist heat resistance result is “Bad (the width of change was 10% or more)”. Besides, the “haze after the moist heat resistance test” value in series [3] (in words, summary of Table 1) is “significantly increased”.
Consider `CCCCOc1ccc(OCCCC)c2c1SC(=C1C(=O)N(CCCCP(=O)(O)O)N(CCCCP(=O)(O)O)C1=O)S2` [Compound M-19], for which the “Solubility (25° C.)” value in series [1] was determined as 3.0 % by mass.
On the same count and under the same terms, under `CCCCOc1ccc(OCCCC)c2c1SC(=C(C#N)C(=O)OCCCCS(=O)(=O)[O-])S2.[Na+]` [Compound M-9] stands 2.1 % by mass; under `CCCCN1C(=O)C(=C2Sc3c(OCCCCP(=O)(O)O)ccc(OCCCCP(=O)(O)O)c3S2)C(=O)N1CCCC` [Compound M-17], 3.0 % by mass; under `O=C1C(=C2Sc3c(OCCCCS(=O)(=O)[O-])ccc(OCCCCS(=O)(=O)[O-])c3S2)C(=O)N(c2ccccc2)N1c1ccccc1.[Na+].[Na+]` [Compound M-13], 3.3 % by mass.
In the case of `O=S(=O)([O-])CCNc1nc(NCCS(=O)(=O)[O-])nc(Nc2ccc(C=Cc3ccc(Nc4nc(NCCS(=O)(=O)[O-])nc(NCCS(=O)(=O)[O-])n4)cc3S(=O)(=O)[O-])c(S(=O)(=O)[O-])c2)n1.[Na+].[Na+].[Na+].[Na+].[Na+].[Na+]` [Compound H-3, reference compound], in series [2] (setting [6]), the Light fastness result is “Bad (the width of change was 10% or more)”. Further, in series [3] (setting [6]), the Haze after moist heating worked out at 9.5% and the Moist heat resistance entry is “Bad (the width of change was 10% or more)”.
With `CCCCC(CC)COc1ccc(OCC(CC)CCCC)c2c1SC(=C1C(=O)N(CCCCS(=O)(=O)[O-])N(CCCCS(=O)(=O)[O-])C1=O)S2.[Na+].[Na+]` (centres unmarked) [Compound M-15], the “Solubility (25° C.)” value in series [1] is reported as 2.9 % by mass.
Turning to `O=C1C(=C2Sc3c(OCCS(=O)(=O)[O-])ccc(OCCS(=O)(=O)[O-])c3S2)C(=O)N(CCCS(=O)(=O)[O-])N1CCCS(=O)(=O)[O-].[Na+].[Na+].[Na+].[Na+]` [Compound M-16], the “Solubility (25° C.)” value in series [1] is 2.9 % by mass.
As for `CCCCOc1ccc(OCCCCS(=O)(=O)[O-])c2c1SC(=C1C(=O)N(CCCCS(=O)(=O)[O-])N(CCCCS(=O)(=O)[O-])C1=O)S2.[Na+].[Na+].[Na+]` [Compound M-14], the “Solubility (25° C.)” value in series [1] was determined as 3.7 % by mass.
As for `N#CC(C#N)=C1Sc2c(OC(=O)CCC(=O)[O-])ccc(OC(=O)CCC(=O)[O-])c2S1.[Na+].[Na+]` [Compound M-8], the Light fastness entry in series [2] (setting [7]) and in series [2] (setting [6]) was “Particularly good (the width of change was less than 5%)” in each case. Moreover, the Haze after moist heating in series [3] (setting [7]) is 0.3%; in series [3] (setting [6]) it was 0.4%. In addition, the Moist heat resistance result in series [3] (setting [7]) was “Particularly good (the width of change was less than 5%)”; in series [3] (setting [6]), “Good (the width of change was 5% or more and less than 10%)”. Also, the “Solubility (25° C.)” value in series [1] is 2.6 % by mass.
Turning to `N#CC(C(=O)c1ccccc1)=C1Sc2c(OCCCS(=O)(=O)[O-])ccc(OCCCS(=O)(=O)[O-])c2S1.[Na+].[Na+]` [Compound M-2], the “Solubility (25° C.)” value in series [1] is given as 2.9 % by mass.
The same measure, in the same setting: for `CCCCN1C(=O)C(=C2Sc3c(OCCCS(=O)(=O)[O-])ccc(OCCCS(=O)(=O)[O-])c3S2)C(=O)N1CCCC.[Na+].[Na+]` [Compound M-12] the value was 3.6 % by mass; for `N#CC(C#N)=C1Sc2c(OCCCCP(=O)(O)O)ccc(OCCCCP(=O)(O)O)c2S1` [Compound M-7], 2.0 % by mass.
